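Tested at 5 concentrations; 48 h exposure; 96-well plates; endpoints linearly interpolated, else capped at highest concentration. GI50 is the concentration that inhibits growth by half. TGI: concentration producing complete growth inhibition.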
Legend:
Test in all cases: NCI-60 cell line screen, 48 h
NCI-H522 lung = tested on: NCI-H522 lung
HS 578T breast = tested on: HS 578T breast
SK-MEL-28 melanoma = tested on: SK-MEL-28 melanoma
MALME-3M melanoma = tested on: MALME-3M melanoma
SK-MEL-5 melanoma = tested on: SK-MEL-5 melanoma
A498 renal = tested on: A498 renal
UACC-257 melanoma = tested on: UACC-257 melanoma
M14 melanoma = tested on: M14 melanoma
786-0 renal = tested on: 786-0 renal
SW-620 colon = tested on: SW-620 colon

Structure (SMILES) | GI50 (NCI-H522 lung) [µM] | TGI (NCI-H522 lung) [µM] | GI50 (HS 578T breast) [µM] | TGI (HS 578T breast) [µM] | GI50 (SK-MEL-28 melanoma) [µM] | TGI (SK-MEL-28 melanoma) [µM] | GI50 (MALME-3M melanoma) [µM] | TGI (MALME-3M melanoma) [µM] | GI50 (SK-MEL-5 melanoma) [µM] | TGI (SK-MEL-5 melanoma) [µM] | GI50 (A498 renal) [µM] | TGI (A498 renal) [µM] | GI50 (UACC-257 melanoma) [µM] | TGI (UACC-257 melanoma) [µM] | GI50 (M14 melanoma) [µM] | TGI (M14 melanoma) [µM] | GI50 (786-0 renal) [µM] | TGI (786-0 renal) [µM] | GI50 (SW-620 colon) [µM] | TGI (SW-620 colon) [µM]
C[C@@]1(c2ncncc2F)NC(=O)c2cc(-c3cn[nH]c3)ccc21 | 13.1 | > 100 | 23 | > 100 | 11.7 | 73.4 | 12.9 | 68.4 | 20 | > 100 | 14.4 | 50.5 | 30.3 | 98.7 | 15.2 | 77.7 | 23.6 | 91.1 | 6.79 | > 100
CCOC(=O)N1C/C(=C/c2ccc(OC)cc2)C(=O)/C(=C/c2ccc(OC)cc2)C1 | 2.91 | 11.1 | 2.85 | > 100 | 2.72 | 7.84 | 4.76 | > 33.9 | 1.6 | 3.17 | 3.13 | > 29 | 2.88 | 11.4 | 2.11 | 5.2 | 1.79 | 3.4 | 1.37 | 4.4
COc1ccc2c(c1OC)-c1c(c3ccc([N+](=O)[O-])cc3c(=O)n1CCCN=[N+]=[N-])C2=O | 3 | 51.7 | > 100 | > 100 | > 100 | > 100 | > 100 | > 100 | 12.2 | > 100 | 82.3 | > 100 | 17.2 | > 100 | 3.46 | 10.6 | 3.44 | 15.8 | 23.1 | > 100
Cc1ccccc1-n1c(/C=C\c2ccccn2)nc2ccccc2c1=O | 5.7 | 39.1 | 15.5 | > 100 | 18.4 | 39.8 | 18.8 | 42.1 | 9.61 | 22.6 | 9.47 | 70.6 | 31 | > 100 | 14.2 | 33.9 | 20.6 | 64.4 | 13.2 | 56.2
c1ccc2cc(OCC3CO3)c(OCC3CO3)cc2c1 (stereo not given) | – | 5.79 | – | 20.3 | – | 26.1 | – | 36.5 | – | 21.2 | – | 24.7 | – | 24.1 | – | 13.3 | – | 12.9 | – | 13.9
COC(=O)c1c2c(c(C)[n+]([O-])c1C)C(=O)C(NCc1cccc(OC)c1)=CC2=O | 1.92 | 5.02 | 4.1 | 34.7 | 4.6 | 18.2 | 0.318 | 1.3 | 1.2 | 2.47 | 1.79 | 5.3 | 1.55 | 3.27 | 1.79 | 3.72 | 3.6 | 27.1 | 2.65 | 8.96
CCCCCCCCCCCCOC1C(C(COC2OC(C(O)CN3CCCCC3)C3OC(C)(C)OC23)NC(=O)Nc2ccccc2)OC2OC(C)(C)OC21 (stereo not given) | 17.5 | 48 | 8.75 | 23.6 | 7.89 | 15.3 | 10.1 | 22.2 | 8.66 | 21.7 | 16.9 | 32.7 | 19.3 | 38 | 7.75 | 19.4 | 14.1 | 30.5 | 4.11 | 14.7
O=C(O)c1ccc(S(=O)(=O)N=Nc2c(O)[nH]c3ccccc23)cc1 | – | > 100 | – | > 100 | – | > 100 | – | > 100 | – | > 100 | – | > 100 | – | > 100 | – | > 100 | – | > 100 | – | > 100
Cc1ccc(C2SCc3nc4ccc(C(=O)c5ccccc5)cc4n32)cc1 (stereo not given) | 7.93 | 38.2 | 22.2 | 68.9 | 17.7 | > 100 | 6.27 | 26.8 | 1.33 | 7.48 | 13.5 | 36.3 | 22 | > 61.9 | 11.6 | > 69.1 | 13.3 | 42.2 | 3.69 | > 39.1
CC1CCCN(CC(O)CN2CCCc3ccccc32)C1 (stereo not given) | – | > 100 | – | > 100 | – | > 100 | – | > 100 | – | > 100 | – | > 100 | – | > 100 | – | > 100 | – | > 100 | – | > 100
O=C(O)c1ccc(-c2ccc(C(=O)O)cc2I)c(I)c1 | > 100 | > 100 | > 100 | > 100 | > 100 | > 100 | > 100 | > 100 | > 100 | > 100 | > 100 | > 100 | > 100 | > 100 | > 100 | > 100 | > 100 | > 100 | > 100 | > 100
Cc1c2ncccc2nc2[nH]c3ccc(OCCN(C)C)cc3c12 | 2.41 | 15.9 | 3.77 | 33.7 | 4.4 | 19.1 | 2.42 | 13.5 | 9.77 | 21.9 | 5.18 | 20 | 10.4 | 28.5 | 3.01 | 15.6 | 2.81 | 16.1 | 0.94 | 13.7
COc1ccc(NC(=O)c2sc3nc(C)c(C(O)c4ccc(OC)cc4)cc3c2N)cc1 (stereo not given) | 1.27 | > 50 | 0.821 | 4.09 | 6.22 | > 50 | 2.65 | > 50 | 0.569 | 6.82 | 0.156 | 39.1 | 11.1 | > 50 | 1 | > 50 | 3.35 | > 50 | 1.26 | > 50
CCn1c(-c2nonc2N)nc2c(C#CC(C)(C)O)nc(O[C@@H](CN)c3ccccc3)cc21 | 0.0919 | 0.353 | 0.0453 | 1.09 | 0.399 | 1.19 | 0.447 | 1.47 | 0.413 | 0.892 | 0.00553 | 0.171 | 0.611 | 1.54 | 0.407 | 1.67 | 0.16 | 2.49 | 0.119 | 3.17
O=C(NCCN1CCOCC1)Nc1ccc(-c2cc3c(Nc4ccc(Oc5cccc(C(F)(F)F)c5)c(Cl)c4)ncnc3s2)cc1 | 0.91 | 2.26 | 1.16 | 3.84 | 0.809 | 1.6 | 0.832 | 1.57 | 0.916 | 1.71 | 2.04 | 7.79 | 0.927 | 1.84 | 1.16 | 3.24 | 0.67 | 1.6 | 1.01 | 2.06
O=C(Nc1cccc2cccnc12)c1ccc(N2C(=O)[C@@H]3[C@H](C2=O)[C@@H]2C=C[C@H]3C2)cc1 | 18.4 | 54.4 | 40.8 | > 100 | 35.2 | > 100 | 21.5 | > 100 | 13.4 | 29.6 | 14.5 | > 93.2 | 30.5 | > 100 | 34.9 | > 100 | > 74.2 | > 100 | 42 | > 100
CS(=O)c1ccc(-c2nc(-c3ccc(F)cc3)c(-c3ccncc3)[nH]2)cc1 (stereo not given) | 28.8 | > 85.6 | 33.3 | > 100 | 17.1 | 66.3 | 14.2 | 64.9 | 20.3 | 50.5 | 10.6 | 53.5 | 16.3 | 41.6 | 11.3 | 43.3 | 16.8 | 38.8 | 30 | > 75
CCCCN(CCCC)CC(C)(C)C(O)c1ccc(OC)c2ccccc12 (stereo not given) | 4.18 | 18.5 | 4.55 | 27 | 11.3 | 24.8 | 3.02 | 16.6 | 2 | 4.95 | 4.27 | 22.9 | 6.31 | 23.8 | 4.21 | 17.7 | 10 | 28 | 2.54 | 14.5
C#CCOc1ccc2ncnc(Nc3ccc(NC(=O)CCl)cc3)c2c1 | 2 | 4.27 | 5.61 | 61.7 | 14.5 | 79.6 | 4.58 | 18.1 | 3.87 | 15.5 | 10.6 | 24 | 15.5 | 38.4 | 9.4 | 27.7 | 4.36 | 16 | 3.48 | 13.3

Source: PubChem BioAssay (NCI)
